The target in assay [1] is T1, human A1 AR (Homo sapiens, UniProt P30542).
T1 construct: expressed in transfected cells; membranes
T1 sequence (P30542 1-326): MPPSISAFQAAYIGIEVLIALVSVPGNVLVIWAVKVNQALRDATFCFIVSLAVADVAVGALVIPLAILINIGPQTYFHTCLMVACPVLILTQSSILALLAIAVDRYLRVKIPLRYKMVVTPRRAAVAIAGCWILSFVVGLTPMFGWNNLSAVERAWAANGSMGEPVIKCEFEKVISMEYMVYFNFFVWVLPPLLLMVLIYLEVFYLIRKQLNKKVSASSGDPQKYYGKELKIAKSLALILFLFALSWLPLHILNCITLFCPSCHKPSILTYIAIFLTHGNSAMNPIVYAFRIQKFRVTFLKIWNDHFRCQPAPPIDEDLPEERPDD
Description: Radioligand competition binding, human A1 AR. To be noted: binding affinity; 125I-ABA; membranes of CHO K1 cells stably expressing human A1 AR. The method, then: (§1) Sf9 cells were cultured in Grace's medium supplemented with 10% fetal bovine serum, 2.5 μg/ml amphotericin B and 50 μg/ml gentamycin in an atmosphere of 50% N2/50% O2. Viral infection was performed at a density of 2.5×10^6 cells/mL with a multiplicity of infection of two for each virus used. Infected cells were harvested 3 days post-infection and washed twice in insect PBS (PBS pH 6.3). Cells were then resuspended in lysis buffer (20 mM HEPES pH 7.5, 150 mM NaCl, 3 mM MgCl2, 1 mM β-mercaptoethanol (BME), 5 μg/mL leupeptin, 5 μg/mL pepstatin A, 1 μg/mL aprotinin, and 0.1 mM PMSF) and snap frozen for storage at −80° C. Cells were thawed on ice, brought to 30 mL total volume in lysis buffer, and burst by N2 cavitation (600 psi for 20 minutes). A low-speed centrifugation was performed to remove any unlysed cells (1000×g for 10 minutes), followed by a high-speed centrifugation (17,000×g for 30 minutes). The pellet from the final centrifugation was homogenized in buffer containing 20 mM HEPES pH 8, 100mM NaCl, 1% glycerol, 2 μg/mL leupeptin, 2 μg/mL pepstatin A, 2 μg/mL Aprotinin, 0.1 mM PMSF, and 10 μM GDP using a small glass homogenizer followed by passage through a 26 gauge needle. Membranes were aliquoted, snap frozen in liquid N2, and stored at −80° C. Membranes from cells stably expressing the human A1 AR(CHO K1 cells) or A3 AR(HEK 293 cells) were prepared as described (Robeva et al., 1996).
(§2) Radioligand binding to recombinant human A2A receptors in Sf9 cell membranes was performed using either the radio labeled agonist, ^125I-APE (Luthin et al., 1995) or the radio labeled antagonist, ^125I-ZM241385 (^125I-ZM). To detect the high affinity, GTPγS-sensitive state of A1 and A3AR, we used the agonist, ^125I-ABA (Linden et al., 1985; Linden et al., 1993). Binding experiments were performed in triplicate with 5 μg (A2A) or 25 μg (A1 and A3) membrane protein in a total volume of 0.1 mL HE buffer (20 mM HEPES and 1 mM EDTA) with 1 U/mL adenosine deaminase and 5 mM MgCl2 with or without 50 μM GTPγS. Membranes were incubated with radioligands at room temperature for three hours (for agonists) or two hours (for antagonists) in Millipore Multiscreen® 96-well GF/C filter plates and assays were terminated by rapid filtration on a cell harvester (Brandel, Gaithersburg, Md.) followed by 4×150 μl washes over 30 seconds with ice cold 10 mM Tris-HCl, pH 7.4, 10 mM MgCl2. Nonspecific binding was measured in the presence of 50 μM NECA. Competition binding assays were performed as described (Robeva et al., 1996) using 0.5-1 nM ^125I-APE, ^125I-ZM241385, or ^125I-ABA. […]

The target in assay [2] is T2, recombinant human A2A receptors (Homo sapiens, UniProt P29274).
T2 construct: expressed in transfected cells; host or cells: Sf9 insect cells, viral infection; membranes
T2 sequence (P29274 whole entry): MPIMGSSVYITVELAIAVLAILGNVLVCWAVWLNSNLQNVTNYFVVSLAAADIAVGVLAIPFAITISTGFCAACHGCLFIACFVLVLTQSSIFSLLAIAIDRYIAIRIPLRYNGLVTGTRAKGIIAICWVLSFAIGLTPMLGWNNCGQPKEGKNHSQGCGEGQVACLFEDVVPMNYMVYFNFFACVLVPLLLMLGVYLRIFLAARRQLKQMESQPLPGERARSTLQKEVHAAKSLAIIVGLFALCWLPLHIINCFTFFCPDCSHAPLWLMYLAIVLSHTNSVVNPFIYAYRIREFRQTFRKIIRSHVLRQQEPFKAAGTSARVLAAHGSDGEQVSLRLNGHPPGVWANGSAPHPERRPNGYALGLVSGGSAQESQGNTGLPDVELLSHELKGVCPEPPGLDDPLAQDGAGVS
The assay is described as follows: Radioligand competition binding, recombinant human A2A receptors. The note with it: binding affinity; 125I-APE or 125I-ZM241385; Sf9 cell membranes. How it is done:
as §1, §2
(In general: Displacement assays read how much labelled ligand stays bound in the presence of the test substance.)

The target of assay [3] is T3, A3 AR (Homo sapiens, UniProt P0DMS8).
T3 construct: expressed in transfected cells; membranes
T3 sequence (P0DMS8 1-318): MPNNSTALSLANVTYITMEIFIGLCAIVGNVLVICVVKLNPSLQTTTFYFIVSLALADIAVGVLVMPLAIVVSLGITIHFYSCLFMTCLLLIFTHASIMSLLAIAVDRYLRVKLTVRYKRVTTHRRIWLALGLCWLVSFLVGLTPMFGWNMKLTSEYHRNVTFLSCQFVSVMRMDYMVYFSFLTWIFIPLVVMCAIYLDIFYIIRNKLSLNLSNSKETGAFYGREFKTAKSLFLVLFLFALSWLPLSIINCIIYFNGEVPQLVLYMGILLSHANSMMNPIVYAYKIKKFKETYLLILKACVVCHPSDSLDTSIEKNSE
The assay is described as follows: Radioligand competition binding, human A3 AR. The note with it: binding affinity; 125I-ABA; membranes of HEK 293 cells stably expressing human A3 AR. How it is done: as §1, §2

Assay [4] has as its system human neutrophils. Description: Human neutrophil oxidative activity, luminol-enhanced chemiluminescence. The format is cell-based. To be noted: fMLP-stimulated peak chemiluminescence. From the text:
Chemiluminescence Methods: Luminol enhanced chemiluminescence, a measure of neutrophil oxidative activity, is dependent upon both superoxide production and mobilization of the granule enzyme myeloperoxidase. The light is emitted from unstable high-energy oxygen species such as hypochlorous acid and singlet oxygen generated by activated neutrophils.
Purified human neutrophils (2×10^6/ml) suspended in Hanks balanced salt solution containing 0.1% human serum albumin (HA), adenosine deaminase (1 U/mL) and rolipram (100 nM) were incubated (37° C.) in a water bath for 15 min with or without rhTNF(10 U/ml). Following incubation 100 µL aliquots of the PMN were transferred to wells (White walled clear bottom 96 well tissue culture plates Costar #3670; 2 wells/condition) containing […] and luminol (final concentration 100 µM) with or without adenosine agonist (final agonist concentrations 0.01-1000 nM). The plate was incubated 5 min (37° C.) and then fMLP (501 in HA; final concentration […]) was added to all wells.
Peak chemiluminescence was determined with a Victor 1420 Multilabel Counter in the chemiluminescence mode using the Wallace Workstation software. Data are presented as peak chemiluminescence as percent of activity in the absence of an adenosine agonist. The EC50 was determined using PRISM software. All compounds were tested with PMNs from three separate donors.
f-met-leu-phe (fMLP), luminol, superoxide dismutase, cytochrome C, fibrinogen, adenosine deaminase, and trypan blue were obtained from Sigma Chemical. Ficoll-hypaque was purchased from ICN (Aurora, Ohio), and Cardinal Scientific (Santa Fe, N. Mex.) and Accurate Chemicals and Scientific (Westerbury, N.Y.). Endotoxin (lipopolysaccharide; E. coli K235) was from List Biologicals (Campbell, Calif.). Hanks balanced salt solution (HBSS), and limulus amebocyte lysate assay kit were from BioWittaker (Walkersville, Md.). Human serum albumin (HSA) was from Cutter Biological (Elkhart, Ind.). Recombinant human tumor necrosis factor-alpha was supplied by Dianippon Pharmaceutical Co. Ltd. (Osaka, Japan). ZM241385 (4-(2-[7-amino-2-(2-furyl) [1,2,4]triazolo[2,3-a][1,3,5]triazin-5-yl amino]ethyl)phenol) was a gift from Simon Poucher, Zeneca Pharmaceuticals, Cheshire, UK. Stock solutions (1 mM and 10 mM in DMSO) were made and stored at −20° C.
Purified neutrophils (−98% neutrophils and >95% viable by trypan blue exclusion) containing <1 platelet per 5 neutrophils and <50 pg/ml endotoxin (limulus amebocyte lysate assay) were obtained from normal heparinized (10 U/ml) venous blood by a one step Ficoll-hypaque separation procedure (A. Ferrante et al., J. Immunol. Meth., 36, 109 (1980)).
Luminol-enhanced chemiluminescence, a measure of neutrophil oxidative activity, is dependent upon both superoxide production and mobilization of the lysosomal granule enzyme myeloperoxidase. The light is emitted from unstable high-energy oxygen species generated by activated neutrophils. Purified neutrophils (5-10×10^5/ml) were incubated in Hanks balanced salt solution containing 0.1% human serum albumin (1 ml) with the tested A2A agonist with or without rolipram and with or without tumor necrosis factor-alpha (1 U/ml) for 30 minutes at 37° C. in a shaking water bath. Then luminol (1×10^−4 M) enhanced f-met-leu-phe (1 mcM) stimulated chemiluminescence was read with a Chronologo Photometer (Crono-log Corp., Havertown, Pa.) at 37° C. for 2-4 minutes. Chemiluminescence is reported as relative peak light emitted (=height of the curve) compared to samples with tumor necrosis factor-alpha and without agonist or rolipram.

Where [5] appears, read: human neutrophil experiment with Rolipram, read-out: Functional + Roli.
The mark [6] stands for this setting: human neutrophil experiment without Rolipram, read-out: Functional.

Data on 4 compounds can be found in patent US7989431B2, “2-propynyl adenosine analogs with modified 5′-ribose groups having A2A agonist activity” (University of Virginia Patent Foundation, priority 2004, dated 2011).

For orientation: Ki means the equilibrium dissociation constant of an inhibitor or competing ligand from its target.

Read-outs that look alike come from different tables or passages of the source.

As for `COC(=O)C1CCC(CC#Cc2nc(N)c3ncn([C@@H]4O[C@H](C(=O)NC5CC5)C(O)C4O)c3n2)CC1` (stereo in doubt) [Example 1, 4-{3-[6-Amino-9-(5-cyclopropylcarbamoyl-3,4-dihydroxy-tetrahydro-furan-2-yl)-9H-purin-2-yl]-prop-2-ynyl}-cyclohexanecarboxylic acid methyl ester], the Ki in assay [1] amounted to 32 nM; in assay [2], 0.58 nM; in assay [3] it was 34 nM. The results for the EC50 in assay [4] (setting [5]) and in assay [4] (setting [6]) were 0.2 nM and 2 nM, respectively.

As for `COC(=O)N1CCC(CC#Cc2nc(N)c3ncn([C@@H]4O[C@H](C(=O)NC5CC5)C(O)C4O)c3n2)CC1` (stereo in doubt) [Example 2, 4-{3-[6-Amino-9-(5-cyclopropylcarbamoyl-3,4-dihydroxy-tetrahydro-furan-2-yl)-9H-purin-2-yl]-prop-2-ynyl}-piperidine-1-carboxylic acid methyl ester], the Ki in assay [1] was 57 nM; in assay [2], 0.7 nM; in assay [3], 247 nM. The EC50 in assay [4] (setting [5]) was determined as 0.2 nM; in assay [4] (setting [6]) it was 2 nM.

In the case of `C[C@@H]1CCC[C@@](O)(C#Cc2nc(N)c3ncn([C@@H]4O[C@H](C(=O)NC5CC5)C(O)C4O)c3n2)C1` (stereo in doubt) [Example 3, 5-[6-Amino-2-(1-hydroxy-3-methyl-cyclohexylethynyl)-purin-9-yl]-3,4-dihydroxy-tetrahydro-furan-2-carboxylic acid cyclopropylamide], the Ki in assay [1] stood at 1.5 nM; in assay [2] it was 0.5 nM; in assay [3], 3 nM. Besides, the EC50 in assay [4] (setting [5]) came out at 0.04 nM; in assay [4] (setting [6]), 0.3 nM.

For the compound `Nc1nc(I)nc2c1ncn2[C@@H]1O[C@H](C(=O)NC2CC2)C(O)C1O` (stereo in doubt) [Example 4, 5-(6-Amino-2-iodo-purin-9-yl)-3,4-dihydroxy-tetrahydro-furan-2-carboxylic acid cyclopropylamide], the Ki in assay [1] is 33 nM; in assay [2] it was 0.6 nM; in assay [3], 45 nM. Also, the values for the EC50 in assay [4] (setting [5]) and in assay [4] (setting [6]) were 0.2 nM and 2 nM, respectively.
